Among the data in publication PMC12334443, “Biochemical Characterization of a Novel, Glucose-Tolerant β-Glucosidase from Jiangella ureilytica KC603, and Determination of Resveratrol Production Capacity from Polydatin” (Applied Biochemistry and Biotechnology, 2025) are Km and Glucose tolerance values, retold here.

Type in all cases: biochemical
For assay [1], the target named is T1, JurBglKC603 (Jiangella ureilytica, UniProt A0A4R4RWQ6, T2A).
T1 construct: gene E1212_03180; catalytic Glu165 and Glu356
T1 sequence (A0A4R4RWQ6 1-457 T2A): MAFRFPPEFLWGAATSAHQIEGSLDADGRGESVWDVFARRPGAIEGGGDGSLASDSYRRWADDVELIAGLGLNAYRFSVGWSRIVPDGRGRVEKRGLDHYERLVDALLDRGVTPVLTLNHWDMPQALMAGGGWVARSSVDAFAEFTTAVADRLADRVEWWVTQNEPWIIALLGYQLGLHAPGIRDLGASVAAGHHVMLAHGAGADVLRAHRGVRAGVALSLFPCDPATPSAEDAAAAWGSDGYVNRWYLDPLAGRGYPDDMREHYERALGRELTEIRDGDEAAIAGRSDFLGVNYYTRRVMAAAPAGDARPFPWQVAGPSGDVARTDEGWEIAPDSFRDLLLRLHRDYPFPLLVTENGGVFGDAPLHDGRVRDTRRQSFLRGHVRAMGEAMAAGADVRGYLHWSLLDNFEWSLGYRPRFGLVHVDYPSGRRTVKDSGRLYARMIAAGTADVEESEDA
Briefly: glucose release by GOPOD assay, Lineweaver-Burk. As to conditions: 50 mM sodium citrate pH 6, 40 °C, 1 h; substrate 0.2-1 mM. An excerpt:
glucose release by GOPOD assay, Lineweaver-Burk on JurBglKC603

For assay [2], the target named is T1, JurBglKC603. As to the kind of experiment: pNPG hydrolysis with added glucose, relative activity. The note with it: 3 M; 4 mM pNPG, 50 mM sodium citrate pH 6, 35 °C; glucose is also the reaction product. An excerpt: pNPG hydrolysis with added glucose, relative activity on JurBglKC603
Assay [3] concerns the target T1, JurBglKC603. As to the kind of experiment: pNP release at […] nm, Lineweaver-Burk. The note with it: 50 mM sodium citrate pH 6, 35 °C; substrate 0.1-7 mM; read-out: Kinetic parameters / Km.

Take `OC[C@H]1O[C@@H](Oc2cc(O)cc(/C=C/c3ccc(O)cc3)c2)[C@H](O)[C@@H](O)[C@@H]1O` [polydatin]: the Km on JurBglKC603 [1] stood at 4600 µM. The molecule `OC[C@H]1OC(O)[C@H](O)[C@@H](O)[C@@H]1O` (stereo partly drawn) [glucose] came in with a Glucose tolerance at JurBglKC603 [2] of 58%. On to `O=[N+]([O-])c1ccc(O[C@@H]2O[C@H](CO)[C@@H](O)[C@H](O)[C@H]2O)cc1` [pNPG, para-nitrophenyl β-D-glucopyranoside], for which, on JurBglKC603 [3], the Km was 440 µM.
